Structures can show the parent of a compound that is named as a salt. One block for each molecule: values may come before it.
What was measured:
[1] = test system: type II collagen promoter (COL2A1-Gaussia luciferase) in primary human chondrocytes; experiment: HuCol2gLuc 3D aggregate type II collagen promoter-driven Gaussia luciferase assay; assay type: cell-based; details: for stimulation of type II collagen production in the screen of natural products: NCI Natural Products Set V, 5 μM continuously, 22-day assay
Experimental: Chondrogenic Culture. Human COL2A1-GLuc or uninfected cells were thawed and seeded in growth media on synoviocyte matrix at 6,000 cells/cm^2 and expanded to 90-100% confluence in physioxia. Cells were trypsinized (0.25% Trypsin/EDTA; Corning), resuspended in growth media (for monolayer culture) or chondrogenic differentiation media for 3D aggregates (93.24% High-Glucose DMEM (Gibco), 1% dexamethasone 10^−5M (Sigma), 1% ITS+premix (Becton-Dickinson), 1% Glutamax (Hyclone), 1% 100 mM Sodium Pyruvate (Hyclone), 1% MEM Non-Essential Amino Acids (Hyclone), 0.26% L-Ascorbic Acid Phosphate 50 mM (Wako), 0.5% Fungizone (Life Technologies) with TGF-β1 (Peprotech) and seeded as described below.
Generation and Maintenance of 3D aggregates. To generate 3D aggregates, cells were seeded at 50,000 cells per well (in 96-well cell repellent u-bottom plates, GreinerBio) and then centrifuged at 500 RCF, 5 min. For the initial drug screen, aggregates were cultured in basal chondrogenic media (1 ng/ml TGF-β1) alone, with DMSO (vehicle control) or 5 μM of the drug compounds from the NCI library (Natural Products V, NCI). For candidate validation and subsequent studies aggregates were cultured in basal chondrogenic media (10 ng/ml TGF-β1) alone, with DMSO (vehicle control) or compounds as indicated in the results. Aggregates were cultured for three weeks in physioxic conditions, culture medium was sampled and replaced three times a week with fresh medium. An OT-2 (Opentrons) python coded robotic pipette, programmed at an aspiration height of 2 mm from the bottom of the wells and aspiration rate of 40 μl/s was utilized for addition of compound, cell feeding, and media sampling for luciferase assay. After three weeks, cell aggregates were either fixed in neutral buffered formalin for histology or medium removed and aggregates frozen dry (−20° C.) for biochemical assays.
(§1) Luciferase Assay. Conditioned culture medium sampled from aggregates in 96-wells (20 μL/well) was assessed using a stabilized Gaussia Luciferase buffer mix (50 µl/well) for a final concentration of 0.09 M MES, 0.15M Ascorbic Acid, and 4.2 μM Coelenterazine in white 96-well plates. Luminescence was measured in a plate reader (25° C., relative light units (RLU), En Vision plate reader). An OT-2 (Opentrons) python coded robotic pipette was utilized for luciferase buffer addition to white plates (GreinerBio).

rat knee = details: cited from earlier work
[2] = test system: type II collagen promoter (COL2A1-GLuc) in primary rabbit chondrocytes; experiment: COL2A1-GLuc primary rabbit chondrocyte 3D aggregate luciferase assay; assay type: cell-based; details: day 21; for luminescence with a single vitamin or mineral vs basal media alone: one factor at a time; for luminescence: basal media alone ~40,000 RLU
Experimental: Chondrogenic Culture. Rabbit COL2A1-GLuc were thawed and seeded in growth media at 6000 cells/cm^2 and expanded to 90-100% confluence in physioxia. Cells were trypsinized (0.25% Trypsin/EDTA; Corning), resuspended in basal chondrogenic media (93.24% High-Glucose DMEM (Gibco), 1% dexamethasone 10^−5 M (Sigma), 1% ITS+premix (Becton-Dickinson), 1% Glutamax (Hyclone), 1% 100 mM Sodium Pyruvate (Hyclone), 1% MEM Non-Essential Amino Acids (Hyclone), 0.26% L-Ascorbic Acid Phosphate 50 mM (Wako), 0.5% Fungizone (Life Technologies) with TGF-β1 (Peprotech) and seeded as described below.
Generation and Maintenance of 3D Aggregates. To generate 3D aggregates, cells were seeded at 50,000 cells per well (in 96-well cell repellent u-bottom plates, GreinerBio) and then centrifuged at 500 RCF, 5 min. For the TGF-β1 dose response studies, that serve as positive controls for the reporter cells, aggregates were cultured in basal chondrogenic media and different concentrations of TGF-β1 ranging from 0-10 ng/ml. For the DoE studies, aggregates were cultured in basal chondrogenic media (1 ng/ml TGF-β1) as a control or basal media supplemented with vitamins and minerals (Table 3 and Table 5). Plates were cultured for three weeks in physioxia, media was sampled and replaced three times a week with respective medium. An OT-2 (Opentrons) python coded robotic pipette, programmed at an aspiration height of 2 mm from the bottom of the wells and aspiration rate of 40 μl/s was utilized for media preparation, cell feeding, and media sampling for luciferase assay. After three weeks, cell aggregates were either fixed in neutral buffered formalin for histology or medium removed and aggregates frozen dry (−20° C.) for biochemical assays.
as §1, with “Cell” for “Conditioned”, “the seeded” for “aggregates in”, “at” for “mix (50 µl/well) for”, “units,” for “units (RLU),”

HuCol2gLuc aggregates = experiment: Biochemical assays (DNA, GAG, total collagen) on HuCol2gLuc aggregates; assay type: cell-based, human
Experimental: Biochemical Assays. Aggregates frozen at day 22, were thawed with PBS, and digested with Papain (25 μg/ml, Sigma, P4762, in 2 mM cysteine; 50 mM sodium phosphate; 2 mM EDTA at a pH 6.5, 100 μl) at 65° C. overnight. Plates were sealed with a qPCR adhesive sealing film (USA Scientific), a silicone sheet, and steel plates clamped to the plate to prevent evaporation during digestion. Half of the digest (50 μl) was transferred to another plate and frozen for hydroxyproline assessment. In the remaining digest, papain was inactivated with 0.1M sodium hydroxide (NaOH, 50 μl) followed by NaOH neutralization (100 mM Na2HPO4, 0.1 N HCL, pH 1.82, 50 μl). To quantitate DNA content, samples of the neutralized digest (20 μl) were combined with buffered Hoechst dye (#33258, 667 ng/ml, phosphate buffer pH 8, 100 μl) and fluorescence measured at an excitation of 365 nm and emission of 460 nm. For GAG assessment, 1,9-Dimethyl-methylene blue solution (195 μl) was added to neutralized digests (5 μl) and absorbance measured at 595 nm and 525 nm. Readings were corrected by subtracting 595 nm reading from 525 nm. Micrograms of DNA and GAG were calculated using a Calf thymus DNA standard (Sigma) or Chondroitin Sulfate standard (Seikagaku Corp.), respectively.
For hydroxyproline (HP) quantification, the frozen digests (50 μl) were thawed at room temperature and incubated overnight at 105° C. with 6M hydrochloric acid (200 μl). Plates were sealed to prevent evaporation. Samples were then dried at 70° C. overnight with a hydroxyproline standard (Sigma). Copper sulfate (0.15 M, 10 μl) and NaOH (2.5 M, 10 μl) were added to each well and incubated at 50° C. for 5 minutes, followed by hydrogen peroxide (6%, 10 μl) for 10 minutes. Sulfuric acid (1.5 M, 40 μl) and Ehrlich's reagent (20 μl) were added and samples incubated at 70° C. for 15 minutes. Absorbance was measured at 505 nm. Micrograms of hydroxyproline were calculated using the standard. Total collagen was calculated by the following formula (μg of HP×7.6=μg Total Collagen).

[3] = validation, donor 2, 10 ng/ml TGF-β1

stimulation of type II collagen production in the screen of natural products [1]: stimulate type II collagen
Molecule: CC(C)=CC(=O)O[C@H]1[C@H]2[C@H](OC(=O)[C@H]2C)[C@H](O)[C@@H](C)[C@@H]2C=CC(=O)[C@]21C [Fastigilin B]

Molecule: CC(C)CC(=O)Nc1cncc(-c2ccc3[nH]nc(-c4nc5cncc(-c6cccc(F)c6)c5[nH]4)c3c2)c1 [SM04690, reference compound]
in vivo scaled amount (rat knee): 0.3 μg/rat knee

Molecule: [Co] [cobalt, Cobalt]
luminescence with a single vitamin or mineral vs basal media alone [2]: higher luminescence

cumulative luminescence vs untreated controls ([1]; donor 2, 10 μM and 25 μM): significant increase in luminescence | luminescence vs untreated control ([1]; donor 2, 10 μM and 25 μM, from day 8 to day 22): increase in luminescence
Molecule: c1ccc(N2CCN(Cc3nc4ccccc4[nH]3)CC2)nc1 [ABT 724, reference compound]
luminescence vs untreated control ([1]; donor 2, 0.1 μM or 1 μM): no effect

stimulation of type II collagen production in the screen of natural products [1]: stimulate type II collagen
Molecule: Nc1ncnc2c1ncn2C1C=C(CO)C(O)C1O (stereo not drawn) [5-(6-Aminopurin-9-yl)-3-(hydroxymethyl)cyclopent-3-ene-1,2-diol]

stimulation of type II collagen production in the screen of natural products [1]: stimulate type II collagen
Molecule: 6-Hydroxy-2-methoxyaporphine

Molecule: [Cu] [Copper]
luminescence [2]: ~40,000 RLU

Molecule: COc1cc2c3c(c1O)-c1cc(O)ccc1C[C@@H]3N(C)CC2 [(-)-Apoglaziovine]
stimulation of type II collagen production in the screen of natural products [1]: stimulate type II collagen

Molecule: CC(=O)CCCCn1c(=O)c2c(ncn2C)n(C)c1=O [Pentoxifylline, reference compound]
stimulation of type II collagen production in the screen of natural products [1]: stimulate type II collagen

luminescence with a single vitamin or mineral vs basal media alone [2]: higher luminescence
Molecule: N[C@@H](Cc1cc(I)c(Oc2cc(I)c(O)c(I)c2)c(I)c1)C(=O)O [thyroxine, Thyroxine]

Molecule: O=C(O)CCCC[C@@H]1SC[C@@H]2NC(=O)N[C@@H]21 [Vitamin B7, Biotin]
luminescence [2]: ~40,000 RLU | luminescence with a single vitamin or mineral vs basal media alone [2]: higher luminescence

stimulation of type II collagen production in the screen of natural products [1]: stimulate type II collagen
Molecule: Nc1nc(=O)c2c([nH]1)NCC(CNc1ccc(C(=O)N[C@@H](CCC(=O)[O-])C(=O)[O-])cc1)N2C=O.[Ca+2] (stereo partly drawn) [Calcium folinate, reference compound]

Molecule: Promoline [Drug 84]
luminescence over 22 days vs untreated control [1, 3]: increased luminescence

luminescence with a single vitamin or mineral vs basal media alone [2]: detrimental to chondrogenesis
Molecule: Vitamin A

stimulation of type II collagen production in the screen of natural products ([1]; listed as 204): stimulatory effects | stimulation of type II collagen production in the screen of natural products ([1]; listed as Deserpidine): stimulate type II collagen | day 22 luminescence normalized to DMSO vehicle control ([1]; screen, 5 μM, 1 ng/ml TGF-β1): significant increase in luminescence | cumulative luminescence ([1]; validation, donor 1): no significant increase | luminescence over 22 days vs untreated control ([1]; validation, donor 1, 10 ng/ml TGF-β1): increase in luminescence | luminescence over 22 days vs untreated control [1, 3]: not donor 2
Molecule: COC(=O)[C@H]1[C@H]2C[C@@H]3c4[nH]c5ccccc5c4CCN3C[C@H]2C[C@@H](OC(=O)c2cc(OC)c(OC)c(OC)c2)[C@@H]1OC [Drug 204, Deserpidine, reference compound]
trend of luminescence over 22 days normalized to DMSO ([1]; screen, 5 μM, 1 ng/ml TGF-β1): initial decrease in expression with continued increase in luminescence after day 8 | glycosaminoglycan (GAG) content (HuCol2gLuc aggregates; day 22, donor 1): no effect on GAG | total collagen (HuCol2gLuc aggregates; day 22, donor 1): no significant increase in total collagen | DNA content (HuCol2gLuc aggregates; day 22, donor 2, vs untreated): significant decrease in DNA content | glycosaminoglycan (GAG) content (HuCol2gLuc aggregates; day 22, donor 2, untreated 15 μg): 10 µg | total collagen (HuCol2gLuc aggregates; day 22, donor 2, untreated ~14 μg): no significant increase in total collagen

stimulation of type II collagen production in the screen of natural products [1]: stimulate type II collagen
Molecule: CC[C@]1(O)C[C@H]2CN(CCc3c([nH]c4ccccc34)[C@@](C(=O)OC)(c3cc4c(cc3OC)N(C=O)[C@H]3[C@@](O)(C(=O)OC)[C@H](OC(C)=O)[C@]5(CC)C=CCN6CC[C@]43[C@@H]65)C2)C1 [Vincristine sulfate, reference compound]

Molecule: COc1cc2c3c(c1O)-c1cc(O)ccc1CC3N(C)CC2 (stereo not drawn) [1,10-Dihydroxy-2-methoxyaporphine]
stimulation of type II collagen production in the screen of natural products [1]: stimulate type II collagen

Molecule: [Cr] [chromium, Chromium]
luminescence with a single vitamin or mineral vs basal media alone [2]: higher luminescence

Molecule: C=C1C(=O)OC2C1CCC(C)C1(O)C=CC(=O)C21C (stereo not drawn) [Parthenicin]
stimulation of type II collagen production in the screen of natural products [1]: stimulate type II collagen

cumulative luminescence vs untreated controls ([1]; donor 2, 12.5 μM and 25 μM): significant increase in luminescence | luminescence vs untreated controls ([1]; donor 2, 12.5 μM and 25 μM): increased luminescence
Molecule: Cl.Cl.Fc1ccc(N2CCN(CCC3OCCc4ccccc43)CC2)cc1 (stereo not drawn) [PNU 96415E, reference compound]

B1: FGF18: growth factor cited for dose scaling (protein, UniProt O76093 28-207, looked up)
Fibroblast growth factor 18: EENVDFRIHVENQTRARDDVSRKQLRLYQLYSRTSGKHIQVLGRRISARGEDGDKYAQLLVETDTFGSQVRIKGKETEFYLCMNRKGKLVGKPDGTSKECVFIEKVLENNYTALMSAKYSGWYVGFTKKGRPRKGPKTRENQQDVHFMKRYPKGQPELQKPFKYTTVTKRSRRIRPTHPA
in vivo rat knee efficacy (rat knee): 3-5 μg/knee
